{"source": "the NIST ThermoML archive (doi:10.1016/j.tca.2014.08.033)", "conditions": "Liquid, DSC", "note": "± gives the expanded uncertainty stated by the source."}
{"molecule": "CN1C(=O)CC[C@H]1c1cccnc1", "note": "[(S)-cotinine]", "values": [{"measurement": "vapor or sublimation pressure", "setting": "537.7 K", "value": "14.95 ± 1.2", "unit": "kPa"}, {"measurement": "vapor or sublimation pressure", "setting": "548.4 K", "value": "19.9 ± 1.6", "unit": "kPa"}, {"measurement": "vapor or sublimation pressure", "setting": "564.2 K", "value": "29.82 ± 2.3", "unit": "kPa"}, {"measurement": "vapor or sublimation pressure", "setting": "585.6 K", "value": "49.74 ± 3.9", "unit": "kPa"}, {"measurement": "vapor or sublimation pressure", "setting": "601.3 K", "value": "69.56 ± 5.4", "unit": "kPa"}, {"measurement": "vapor or sublimation pressure", "setting": "607.4 K", "value": "79.5 ± 6.2", "unit": "kPa"}, {"measurement": "vapor or sublimation pressure", "setting": "619.2 K", "value": "101.32 ± 7.9", "unit": "kPa"}, {"measurement": "vapor or sublimation pressure", "setting": "655.4 K", "value": "197.04 ± 15", "unit": "kPa"}, {"measurement": "vapor or sublimation pressure", "setting": "669.7 K", "value": "247.52 ± 19", "unit": "kPa"}]}
{"molecule": "CCCCCCCCCCCCCCCC", "note": "[hexadecane]", "values": [{"measurement": "vapor or sublimation pressure", "setting": "486.1 K", "value": "14.78 ± 1.2", "unit": "kPa"}, {"measurement": "vapor or sublimation pressure", "setting": "529.6 K", "value": "49.76 ± 3.9", "unit": "kPa"}, {"measurement": "vapor or sublimation pressure", "setting": "549.3 K", "value": "79.6 ± 6.2", "unit": "kPa"}, {"measurement": "vapor or sublimation pressure", "setting": "560.5 K", "value": "101.35 ± 7.9", "unit": "kPa"}, {"measurement": "vapor or sublimation pressure", "setting": "560.9 K", "value": "102.04 ± 7.9", "unit": "kPa"}]}
{"molecule": "CN1CCC[C@H]1c1cccnc1", "note": "[(-)-3-(N-methylpyrrolidino)pyridine]", "values": [{"measurement": "vapor or sublimation pressure", "setting": "447.7 K", "value": "14.96 ± 1.2", "unit": "kPa"}, {"measurement": "vapor or sublimation pressure", "setting": "457.2 K", "value": "19.93 ± 1.6", "unit": "kPa"}, {"measurement": "vapor or sublimation pressure", "setting": "471.1 K", "value": "29.87 ± 2.3", "unit": "kPa"}, {"measurement": "vapor or sublimation pressure", "setting": "490.6 K", "value": "49.83 ± 3.9", "unit": "kPa"}, {"measurement": "vapor or sublimation pressure", "setting": "510.1 K", "value": "79.61 ± 6.2", "unit": "kPa"}, {"measurement": "vapor or sublimation pressure", "setting": "520.4 K", "value": "99.84 ± 7.7", "unit": "kPa"}, {"measurement": "vapor or sublimation pressure", "setting": "566.4 K", "value": "247.84 ± 19", "unit": "kPa"}, {"measurement": "vapor or sublimation pressure", "setting": "594.8 K", "value": "397.81 ± 31", "unit": "kPa"}, {"measurement": "vapor or sublimation pressure", "setting": "609.3 K", "value": "500.02 ± 39", "unit": "kPa"}, {"measurement": "vapor or sublimation pressure", "setting": "617.8 K", "value": "568.97 ± 44", "unit": "kPa"}]}
{"molecule": "O", "note": "[water]", "values": [{"measurement": "vapor or sublimation pressure", "setting": "354.7 K", "value": "49.7 ± 3.9", "unit": "kPa"}, {"measurement": "vapor or sublimation pressure", "setting": "366.85 K", "value": "79.6 ± 6.2", "unit": "kPa"}, {"measurement": "vapor or sublimation pressure", "setting": "373.47 K", "value": "100.66 ± 7.8", "unit": "kPa"}, {"measurement": "vapor or sublimation pressure", "setting": "406.69 K", "value": "298.53 ± 23", "unit": "kPa"}, {"measurement": "vapor or sublimation pressure", "setting": "425.39 K", "value": "498.99 ± 39", "unit": "kPa"}]}
{"molecule": "Cc1ccccc1", "note": "[toluene]", "values": [{"measurement": "vapor or sublimation pressure", "setting": "327.6 K", "value": "14.9 ± 1.2", "unit": "kPa"}, {"measurement": "vapor or sublimation pressure", "setting": "360.7 K", "value": "49.6 ± 3.9", "unit": "kPa"}, {"measurement": "vapor or sublimation pressure", "setting": "375.8 K", "value": "79.3 ± 6.2", "unit": "kPa"}, {"measurement": "vapor or sublimation pressure", "setting": "383.5 K", "value": "100.66 ± 7.8", "unit": "kPa"}, {"measurement": "vapor or sublimation pressure", "setting": "384.3 K", "value": "102.73 ± 8", "unit": "kPa"}, {"measurement": "vapor or sublimation pressure", "setting": "451 K", "value": "498.3 ± 39", "unit": "kPa"}, {"measurement": "vapor or sublimation pressure", "setting": "451.5 K", "value": "499.9 ± 39", "unit": "kPa"}, {"measurement": "vapor or sublimation pressure", "setting": "490.4 K", "value": "1009.3 ± 78", "unit": "kPa"}]}
{"molecule": "c1cncc(C2CCCCN2)c1", "note": "(configuration not stated) [(.+-.)-anabasine]", "values": [{"measurement": "vapor or sublimation pressure", "setting": "478 K", "value": "14.95 ± 1.2", "unit": "kPa"}, {"measurement": "vapor or sublimation pressure", "setting": "488 K", "value": "19.9 ± 1.6", "unit": "kPa"}, {"measurement": "vapor or sublimation pressure", "setting": "502.9 K", "value": "29.84 ± 2.3", "unit": "kPa"}, {"measurement": "vapor or sublimation pressure", "setting": "523 K", "value": "49.73 ± 3.9", "unit": "kPa"}, {"measurement": "vapor or sublimation pressure", "setting": "543.5 K", "value": "79.59 ± 6.2", "unit": "kPa"}, {"measurement": "vapor or sublimation pressure", "setting": "555.1 K", "value": "99.57 ± 7.7", "unit": "kPa"}, {"measurement": "vapor or sublimation pressure", "setting": "602.5 K", "value": "248.35 ± 19", "unit": "kPa"}, {"measurement": "vapor or sublimation pressure", "setting": "631.3 K", "value": "398.33 ± 31", "unit": "kPa"}, {"measurement": "vapor or sublimation pressure", "setting": "640.7 K", "value": "468.91 ± 36", "unit": "kPa"}, {"measurement": "vapor or sublimation pressure", "setting": "644.3 K", "value": "498.63 ± 39", "unit": "kPa"}]}
